For experiment [1], the target named is Human KLKB1 (Homo sapiens (Human), UniProt P03952). Kind of experiment: KLKB1 kallikrein activity inhibition assay (chromogenic substrate S-2302). It counts as biochemical. Particulars: Table B. In a few lines:
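Enzyme at a final 3 nM was assayed in 0.05 M Tris pH 7.4, 0.01 M NaCl and 0.2% PEG-8000 at room temperature, with compounds as ten-point threefold dilutions.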

Experiment [2] addresses Human thrombin (Homo sapiens (Human), UniProt P00734). The experiment is described as follows: Thrombin protease activity inhibition assay (chromogenic substrate S-2238). It counts as biochemical. Particulars: 3 nM thrombin, 125 μM S-2238, 10 min pre-incubation, RT. In a few lines: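 Thrombin at 3 nM final in 0.05 M Tris pH 7.4, 0.015 M NaCl, 0.01% PEG-8000, at room temperature; compounds as ten-point three-fold dilutions.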

The IC50 is the concentration at which inhibition is half-maximal. Read a low IC50 as greater potency in that assay.

Bounds are passed on as bounds.

Chain of Human KLKB1 (P03952 391-638 limits assumed): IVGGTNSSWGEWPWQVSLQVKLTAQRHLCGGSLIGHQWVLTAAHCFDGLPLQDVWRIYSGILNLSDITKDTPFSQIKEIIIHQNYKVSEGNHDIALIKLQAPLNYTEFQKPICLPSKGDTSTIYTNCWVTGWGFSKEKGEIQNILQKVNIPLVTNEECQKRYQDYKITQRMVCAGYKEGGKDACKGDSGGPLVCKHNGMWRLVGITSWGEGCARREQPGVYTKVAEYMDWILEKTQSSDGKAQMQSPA
Chain of Human KLKB1 (P03952 20-390 partner limits assumed): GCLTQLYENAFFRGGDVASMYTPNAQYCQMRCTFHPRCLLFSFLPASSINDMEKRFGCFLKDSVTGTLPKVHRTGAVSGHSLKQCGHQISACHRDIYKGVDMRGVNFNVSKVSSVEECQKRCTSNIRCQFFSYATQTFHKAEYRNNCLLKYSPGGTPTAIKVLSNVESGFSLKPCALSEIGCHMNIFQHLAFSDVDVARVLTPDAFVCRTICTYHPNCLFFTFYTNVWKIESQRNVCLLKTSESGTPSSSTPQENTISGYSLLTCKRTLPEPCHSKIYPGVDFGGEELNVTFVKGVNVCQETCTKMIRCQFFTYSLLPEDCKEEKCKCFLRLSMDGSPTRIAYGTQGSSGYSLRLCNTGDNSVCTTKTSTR

Turning to `O=C(c1cccc2c1OCCO2)n1nc(-c2cccn(Cc3cccs3)c2=O)cc1NCc1ccc(Cl)s1` [Cmpd 117, 3-(5-[(5-chlorothiophen-2-yl)methyl]amino-1-[(2,3-dihydro-1,4-benzodioxin-5-yl)carbonyl]-1H-pyrazol-3-yl)-1-(thiophen-2-ylmethyl)-1,2-dihydropyridin-2-one], the results for the IC50 in experiment [1] and in experiment [2] were > 100000 nM and < 100 nM, respectively.

Regarding `COCCn1cccc(-c2cc(NCc3ccc(Cl)s3)n(C(=O)c3ccc(OC)cc3OC)n2)c1=O` [Cmpd 122, 3-(5-[(5-chlorothiophen-2-yl)methyl]amino-1-[(2,4-dimethoxyphenyl)carbonyl]-1H-pyrazol-3-yl)-1-(2-methoxyethyl)-1,2-dihydropyridin-2-one], the IC50 is 1000 to 10000 nM in experiment [1] and < 100 nM in experiment [2].

On to `COc1ccc(C(=O)n2nc(-c3cccn(Cc4ccoc4)c3=O)cc2NCc2ccc(Cl)s2)c(OC)c1` [Cmpd 123, 3-(5-[(5-chlorothiophen-2-yl)methyl]amino-1-[(2,4-dimethoxyphenyl)carbonyl]-1H-pyrazol-3-yl)-1-(furan-3-ylmethyl)-1,2-dihydropyridin-2-one], for which the IC50 in experiment [1] was 10000 to 100000 nM; in experiment [2], < 100 nM.

For `COc1ccc(C(=O)n2nc(-c3cccn(Cc4ccccn4)c3=O)cc2NCc2ccc(Cl)s2)c(OC)c1` [Cmpd 125, 3-(5-[(5-chlorothiophen-2-yl)methyl]amino-1-[(2,4-dimethoxyphenyl)carbonyl]-1H-pyrazol-3-yl)-1-(pyridin-2-ylmethyl)-1,2-dihydropyridin-2-one], the IC50 is 1000 to 10000 nM in experiment [1] and < 100 nM in experiment [2].

As to `COc1ccc(C(=O)n2nc(-c3cccn(CCN4CCOCC4)c3=O)cc2NCc2ccc(Cl)s2)c(OC)c1` [Cmpd 131, 3-(5-[(5-chlorothiophen-2-yl)methyl]amino-1-[(2,4-dimethoxyphenyl)carbonyl]-1H-pyrazol-3-yl)-1-[2-(morpholin-4-yl)ethyl]-1,2-dihydropyridin-2-one], the IC50 in experiment [1] is 100 to 1000 nM; in experiment [2], < 100 nM.

Regarding `COc1ccccc1C(=O)n1nc(-c2cccn(Cc3cccnc3)c2=O)cc1NCc1ccc(Cl)s1` [Cmpd 140, 3-(5-[(5-chlorothiophen-2-yl)methyl]amino-1-[(2-methoxyphenyl)carbonyl]-1H-pyrazol-3-yl)-1-(pyridin-3-ylmethyl)-1,2-dihydropyridin-2-one], the results for the concentration for half-maximal inhibition (IC50) in experiment [1] and in experiment [2] were 100 to 1000 nM and < 100 nM, respectively.

For `CC1(C(=O)n2nc(-c3cccn(Cc4cccs4)c3=O)cc2NCc2ccc(Cl)s2)CCOCC1` [Cmpd 157, 3-(5-[(5-chlorothiophen-2-yl)methyl]amino-1-[(4-methyloxan-4-yl)carbonyl]-1H-pyrazol-3-yl)-1-(thiophen-2-ylmethyl)-1,2-dihydropyridin-2-one], the IC50 in experiment [1] is > 100000 nM; in experiment [2], < 100 nM.

Take `COCCn1cccc(-c2cc(NCc3ccc(Cl)s3)n(C(=O)c3ccco3)n2)c1=O` [Cmpd 160, 3-(5-[(5-chlorothiophen-2-yl)methyl]amino-1-[(furan-2-yl)carbonyl]-1H-pyrazol-3-yl)-1-(2-methoxyethyl)-1,2-dihydropyridin-2-one]: the results for the concentration for half-maximal inhibition (IC50) in experiment [1] and in experiment [2] were 100 to 1000 nM and > 100000 nM, respectively.

Turning to `O=C(c1ccoc1)n1nc(-c2cccn(Cc3ccsc3)c2=O)cc1NCc1ccc(Cl)s1` [Cmpd 179, 3-(5-[(5-chlorothiophen-2-yl)methyl]amino-1-[(furan-3-yl)carbonyl]-1H-pyrazol-3-yl)-1-(thiophen-3-ylmethyl)-1,2-dihydropyridin-2-one], the IC50 is 10000 to 100000 nM in experiment [1] and < 100 nM in experiment [2].

In the case of `COCCn1cccc(-c2cc(NCc3ccc(Cl)s3)n(C(=O)c3cccs3)n2)c1=O` [Cmpd 182, 3-(5-[(5-chlorothiophen-2-yl)methyl]amino-1-[(thiophen-2-yl)carbonyl]-1H-pyrazol-3-yl)-1-(2-methoxyethyl)-1,2-dihydropyridin-2-one], the 50% inhibitory concentration (IC50) in experiment [1] is 1000 to 10000 nM; in experiment [2], < 100 nM.

Regarding `O=C(c1cccs1)n1nc(-c2cccn(Cc3ccoc3)c2=O)cc1NCc1ccc(Cl)s1` [Cmpd 184, 3-(5-[(5-chlorothiophen-2-yl)methyl]amino-1-[(thiophen-2-yl)carbonyl]-1H-pyrazol-3-yl)-1-(furan-3-ylmethyl)-1,2-dihydropyridin-2-one], the IC50 is 10000 to 100000 nM in experiment [1] and < 100 nM in experiment [2].

Regarding `COCCn1cccc(-c2cc(NCc3ccc(Cl)s3)n(C(=O)c3ccsc3)n2)c1=O` [Cmpd 194, 3-(5-[(5-chlorothiophen-2-yl)methyl]amino-1-[(thiophen-3-yl)carbonyl]-1H-pyrazol-3-yl)-1-(2-methoxyethyl)-1,2-dihydropyridin-2-one], the IC50 was 100 to 1000 nM in experiment [1] and < 100 nM in experiment [2].

On to `O=C(c1ccsc1)n1nc(-c2cccn(Cc3ccoc3)c2=O)cc1NCc1ccc(Cl)s1` [Cmpd 196, 3-(5-[(5-chlorothiophen-2-yl)methyl]amino-1-[(thiophen-3-yl)carbonyl]-1H-pyrazol-3-yl)-1-(furan-3-ylmethyl)-1,2-dihydropyridin-2-one], for which the IC50 in experiment [1] was 100 to 1000 nM; in experiment [2], < 100 nM.

`O=C(c1ccsc1)n1nc(-c2cccn(Cc3ccccn3)c2=O)cc1NCc1ccc(Cl)s1` [Cmpd 198, 3-(5-[(5-chlorothiophen-2-yl)methyl]amino-1-[(thiophen-3-yl)carbonyl]-1H-pyrazol-3-yl)-1-(pyridin-2-ylmethyl)-1,2-dihydropyridin-2-one]: the figures for the IC50 in experiment [1] and in experiment [2] were 100 to 1000 nM and < 100 nM, respectively.

As for `O=C(c1ccsc1)n1nc(-c2cccn(Cc3ncccn3)c2=O)cc1NCc1ccc(Cl)s1` [Cmpd 201, 3-(5-[(5-chlorothiophen-2-yl)methyl]amino-1-[(thiophen-3-yl)carbonyl]-1H-pyrazol-3-yl)-1-(pyrimidin-2-ylmethyl)-1,2-dihydropyridin-2-one], the IC50 in experiment [1] is 100 to 1000 nM; in experiment [2], < 100 nM.

As for `O=C(c1ccsc1)n1nc(-c2cccn(Cc3ccsc3)c2=O)cc1NCc1ccc(Cl)s1` [Cmpd 203, 3-(5-[(5-chlorothiophen-2-yl)methyl]amino-1-[(thiophen-3-yl)carbonyl]-1H-pyrazol-3-yl)-1-(thiophen-3-ylmethyl)-1,2-dihydropyridin-2-one], the IC50 is 100 to 1000 nM in experiment [1] and < 100 nM in experiment [2].

With `COCCn1cccc(-c2cc(NCc3ccc(Cl)s3)n(C(=O)c3ccc(N4CCOCC4)cc3)n2)c1=O` [Cmpd 208, 3-(5-[(5-chlorothiophen-2-yl)methyl]amino-1-[4-(morpholin-4-yl)phenyl]carbonyl-1H-pyrazol-3-yl)-1-(2-methoxyethyl)-1,2-dihydropyridin-2-one], the IC50 was 1000 to 10000 nM in experiment [1] and < 100 nM in experiment [2].

With `O=C(c1ccc(N2CCOCC2)cc1)n1nc(-c2cccn(Cc3ccoc3)c2=O)cc1NCc1ccc(Cl)s1` [Cmpd 210, 3-(5-[(5-chlorothiophen-2-yl)methyl]amino-1-[4-(morpholin-4-yl)phenyl]carbonyl-1H-pyrazol-3-yl)-1-(furan-3-ylmethyl)-1,2-dihydropyridin-2-one], the IC50 was 10000 to 100000 nM in experiment [1] and < 100 nM in experiment [2].

Consider `O=C(c1ccc(N2CCOCC2)cc1)n1nc(-c2cccn(Cc3ccncc3)c2=O)cc1NCc1ccc(Cl)s1` [Cmpd 214, 3-(5-[(5-chlorothiophen-2-yl)methyl]amino-1-[4-(morpholin-4-yl)phenyl]carbonyl-1H-pyrazol-3-yl)-1-(pyridin-4-ylmethyl)-1,2-dihydropyridin-2-one], for which the IC50 is 100 to 1000 nM in experiment [1] and < 100 nM in experiment [2].

Consider `O=C(c1ccc(N2CCOCC2)cc1)n1nc(-c2cccn(CCN3CCOCC3)c2=O)cc1NCc1ccc(Cl)s1` [Cmpd 218, 3-(5-[(5-chlorothiophen-2-yl)methyl]amino-1-[4-(morpholin-4-yl)phenyl]carbonyl-1H-pyrazol-3-yl)-1-[2-(morpholin-4-yl)ethyl]-1,2-dihydropyridin-2-one], for which the IC50 was 100 to 1000 nM in experiment [1] and < 100 nM in experiment [2].

For the compound `O=c1c(-c2cc(NCc3ccc(Cl)s3)[nH]n2)cccn1Cc1ccccn1` [Cmpd 227, 3-(5-[(5-chlorothiophen-2-yl)methyl]amino-1H-pyrazol-3-yl)-1-(pyridin-2-ylmethyl)-1,2-dihydropyridin-2-one], the IC50 in experiment [1] was > 100000 nM; in experiment [2], 1000 to 10000 nM.

Turning to `O=c1c(-c2cc(NCc3ccc(Cl)s3)[nH]n2)cccn1Cc1ccncc1` [Cmpd 229, 3-(5-[(5-chlorothiophen-2-yl)methyl]amino-1H-pyrazol-3-yl)-1-(pyridin-4-ylmethyl)-1,2-dihydropyridin-2-one], the concentration for half-maximal inhibition (IC50) in experiment [1] was > 100000 nM; in experiment [2], 1000 to 10000 nM.

As for `O=c1c(-c2cc(NCc3ccc(Cl)s3)n[nH]2)cccn1CCc1ccccn1` [Cmpd 235, 3-(5-[(5-chlorothiophen-2-yl)methyl]amino-1H-pyrazol-3-yl)-1-[2-(pyridin-2-yl)ethyl]-1,2-dihydropyridin-2-one], the IC50 in experiment [1] and in experiment [2] was 10000 to 100000 nM each time.

`O=C(c1ccco1)n1nc(-c2ccc[nH]c2=O)cc1NCc1ccccc1` [Cmpd 237, 3-[5-(benzylamino)-1-[(furan-2-yl)carbonyl]-1H-pyrazol-3-yl]-1,2-dihydropyridin-2-one]: the IC50 in experiment [1] is 10000 to 100000 nM; in experiment [2], 100 to 1000 nM.

With `O=C(c1ccco1)n1nc(-c2cccn(Cc3ccccn3)c2=O)cc1NCc1ccccc1` [Cmpd 238, 3-[5-(benzylamino)-1-[(furan-2-yl)carbonyl]-1H-pyrazol-3-yl]-1-(pyridin-2-ylmethyl)-1,2-dihydropyridin-2-one], the half-inhibitory concentration (IC50) in experiment [1] was 1000 to 10000 nM; in experiment [2], < 100 nM.

Turning to `O=C(c1ccccc1Cl)n1nc(-c2cccn(Cc3ccco3)c2=O)cc1NCc1ccc(Cl)s1` [Cmpd 243, 3-1-[(2-chlorophenyl)carbonyl]-5-[(5-chlorothiophen-2-yl)methyl]amino-1H-pyrazol-3-yl-1-(furan-2-ylmethyl)-1,2-dihydropyridin-2-one], the half-inhibitory concentration (IC50) was 100 to 1000 nM in experiment [1] and < 100 nM in experiment [2].

Source of the values: patent publication US9687479B2, “Multisubstituted aromatic compounds as serine protease inhibitors” (VERSEON CORPORATION, priority 2013, dated 2017).
